According to patent publication US10246422B2, “Heterocyclic compounds and use thereof in medicine and in cosmetics” (GALDERMA RESEARCH & DEVELOPMENT, priority 2014, dated 2019):

Test: Metabolic stability in the presence of human hepatic microsomes
Format: in vitro ADME
Details: compound 1 μM (DMSO 0.1%), microsomal protein 0.5 mg/mL, LC/MS/MS
Procedure: This is illustrated more particularly by the test of metabolic stability in the presence of human hepatic microsomes presented below.
Human hepatic microsomes (Becton Dickinson) are incubated at a protein concentration of 0.5 mg/mL in the reaction mixture.
The reaction mixture of the microsomes consists of phosphate buffer pH: 7.4 at 100 mM, MgCl2 at 100 mM (50/50), a system for generating […] consisting of a mixture of nicotinamide adenine […] (NADP), glucose-6-phosphate (G6P) at 1 mg/mL and glucose-6-phosphate dehydrogenase (G6PDH) at 4 U/mL. The compounds are tested at 1 μM (DMSO 0.1%).
The samples are taken from the incubation medium after adding the microsomes, at time 15 minutes. The metabolic reaction is stopped by adding methanol (1 volume incubation medium/3 volumes of methanol). The percentage of the parent product remaining after 15 minutes is measured by LC/MS/MS analysis.

SMILES | % of product remaining at 15 min (human hepatic microsomes) [%]
COc1c(C)cccc1-c1cn(CC(=O)N2CCC(N3CCc4ccccc4NC3=O)CC2)c(=O)n(C)c1=O [Compound 25, 5-(2-methoxy-3-methylphenyl)-3-methyl-1-{2-oxo-2-[4-(2-oxo-1,2,4,5-tetrahydro-benzo[d][1,3]diazepin-3-yl)-piperidin-1-yl]-ethyl}-1H-pyrimidine-2,4-dione] | 8
Cc1cccc(-c2cn(CC(=O)N3CCC(N4CCc5ccccc5NC4=O)CC3)c(=O)n(C)c2=O)c1C [Compound 30, 5-(2,3-dimethylphenyl)-3-methyl-1-{2-oxo-2-[4-(2-oxo-1,2,4,5-tetrahydro-benzo[d][1,3]diazepin-3-yl)-piperidin-1-yl]-ethyl}-1H-pyrimidine-2,4-dione] | 16
CC(C)n1c(=O)c(-c2cccc(F)c2Cl)cn(CC(=O)N2CCC(N3CCc4ccccc4NC3=O)CC2)c1=O [Compound 63, 5-(2-chloro-3-fluorophenyl)-3-isopropyl-1-{2-oxo-2-[4-(2-oxo-1,2,4,5-tetrahydro-benzo[d][1,3]diazepin-3-yl)-piperidin-1-yl]-ethyl}-1H-pyrimidine-2,4-dione] | 45
COC[C@@H](C)n1c(=O)c(-c2cccc(F)c2Cl)cn(CC(=O)N2CCC(N3CCc4ccccc4NC3=O)CC2)c1=O [Compound 110, 5-(2-chloro-3-fluorophenyl)-3-((R)-2-methoxy-1-methylethyl)-1-{2-oxo-2-[4-(2-oxo-1,2,4,5-tetrahydro-benzo[d][1,3]diazepin-3-yl)-piperidin-1-yl]-ethyl}-1H-pyrimidine-2,4-dione] | 1
CSCCn1c(=O)c(-c2cccc(F)c2Cl)cn(CC(=O)N2CCC(N3CCc4ccccc4NC3=O)CC2)c1=O [Compound 112, 5-(2-chloro-3-fluorophenyl)-3-(2-methylsulphanyl-ethyl)-1-{2-oxo-2-[4-(2-oxo-1,2,4,5-tetrahydro-benzo[d][1,3]diazepin-3-yl)-piperidin-1-yl]-ethyl}-1H-pyrimidine-2,4-dione] | 0
COC(=O)CCn1c(=O)c(-c2cccc(F)c2Cl)cn(CC(=O)N2CCC(N3CCc4ccccc4NC3=O)CC2)c1=O [Compound 114, 3-(5-(2-chloro-3-fluorophenyl)-2,6-dioxo-3-{2-oxo-2-[4-(2-oxo-1,2,4,5-tetrahydro-benzo[d][1,3]diazepin-3-yl)-piperidin-1-yl]-ethyl}-3,6-dihydro-2H-pyrimidin-1-yl)-methyl propionate] | 41
COc1ccc2c(c1)CCN(C1CCN(C(=O)Cn3cc(-c4cccc(F)c4Cl)c(=O)n([C@@H](C)CNC(C)=O)c3=O)CC1)C(=O)N2 [Compound 115, N—[(S)-2-(5-(2-chloro-3-fluorophenyl)-3-{2-[4-(7-methoxy-2-oxo-1,2,4,5-tetrahydro-benzo[d][1,3]diazepin-3-yl)-piperidin-1-yl]-2-oxo-ethyl}-2,6-dioxo-3,6-dihydro-2H-pyrimidin-1-yl)-propyl]acetamide] | 0
COc1ccc2c(c1)CCN(C1CCN(C(=O)Cn3cc(-c4cccc(F)c4Cl)c(=O)n([C@@H](C)CNS(C)(=O)=O)c3=O)CC1)C(=O)N2 [Compound 120, N—[(S)-2-(5-(2-chloro-3-fluorophenyl)-3-{2-[4-(7-methoxy-2-oxo-1,2,4,5-tetrahydro-benzo[d][1,3]diazepin-3-yl)-piperidin-1-yl]-2-oxo-ethyl}-2,6-dioxo-3,6-dihydro-2H-pyrimidin-1-yl)-propyl]-methanesulphonamide] | 1
COc1ccc2c(c1)CCN(C1CCN(C(=O)Cn3cc(-c4cccc(F)c4Cl)c(=O)n([C@@H](C)CS(C)(=O)=O)c3=O)CC1)C(=O)N2 [Compound 142, 5-(2-chloro-3-fluorophenyl)-3-((S)-2-methanesulphonyl-1-methylethyl)-1-{2-[4-(7-methoxy-2-oxo-1,2,4,5-tetrahydro-benzo[d][1,3]diazepin-3-yl)-piperidin-1-yl]-2-oxo-ethyl}-1H-pyrimidine-2,4-dione] | 65
COc1ccc2c(c1)CCN(C1CCN(C(=O)Cn3cc(-c4cccc(F)c4Cl)c(=O)n([C@H](C)CS(C)(=O)=O)c3=O)CC1)C(=O)N2 [Compound 143, 5-(2-chloro-3-fluorophenyl)-3-((R)-2-methanesulphonyl-1-methylethyl)-1-{2-[4-(7-methoxy-2-oxo-1,2,4,5-tetrahydro-benzo[d][1,3]diazepin-3-yl)-piperidin-1-yl]-2-oxo-ethyl}-1H-pyrimidine-2,4-dione] | 42
COc1ccc2c(c1)CCN(C1CCN(C(=O)Cn3cc(-c4cccc(OC)c4F)c(=O)n(C(C)C)c3=O)CC1)C(=O)N2 [Compound 149, 5-(2-fluoro-3-methoxyphenyl)-3-isopropyl-1-{2-[4-(7-methoxy-2-oxo-1,2,4,5-tetrahydro-benzo[d][1,3]diazepin-3-yl)-piperidin-1-yl]-2-oxo-ethyl}-1H-pyrimidine-2,4-dione] | 26
COc1ccc2c(c1)CCN(C1CCN(C(=O)Cn3cc(-c4ccccc4OC(F)(F)F)c(=O)n(C(C)C)c3=O)CC1)C(=O)N2 [Compound 150, 3-isopropyl-1-{2-[4-(7-methoxy-2-oxo-1,2,4,5-tetrahydro-benzo[d][1,3]diazepin-3-yl)-piperidin-1-yl]-2-oxo-ethyl}-5-(2-trifluoromethoxyphenyl)-1H-pyrimidine-2,4-dione] | 0
CCC(=O)NC[C@H](C)n1c(=O)c(-c2cccc(F)c2Cl)cn(CC(=O)N2CCC(N3CCc4cc(OC)ccc4NC3=O)CC2)c1=O [Compound 158, N—[(S)-2-(5-(2-chloro-3-fluorophenyl)-3-{2-[4-(7-methoxy-2-oxo-1,2,4,5-tetrahydro-benzo[d][1,3]diazepin-3-yl)-piperidin-1-yl]-2-oxo-ethyl}-2,6-dioxo-3,6-dihydro-2H-pyrimidin-1-yl)-propyl]-propionamide] | 0
COC[C@H](C)n1c(=O)c(-c2cccc(F)c2Cl)cn(CC(=O)Nc2ccc3c(c2)C[C@@]2(C3)C(=O)Nc3ncccc32)c1=O [Compound 165] | 0
COc1cccc(C2=CN(CC(=O)N3CCC(N4CCc5ccccc5NC4=O)CC3)C(=O)N(C(C)C)C2)c1Cl [Compound 193, 3-(1-{2-[5-(2-chloro-3-methoxyphenyl)-3-isopropyl-2-oxo-3,4-dihydro-2H-pyrimidin-1-yl]-acetyl}-piperidin-4-yl)-1,3,4,5-tetrahydro-benzo[d][1,3]diazepin-2-one] | 18
COc1ccc2c(c1)CCN(C1CCN(C(=O)Cn3cc(-c4cccc(OC)c4Cl)c(=O)n([C@@H](C)CNC(C)=O)c3=O)CC1)C(=O)N2 [Compound 206, N—[(S)-2-(5-(2-chloro-3-methoxyphenyl)-3-{2-[4-(7-methoxy-2-oxo-1,2,4,5-tetrahydro-benzo[d][1,3]diazepin-3-yl)-piperidin-1-yl]-2-oxo-ethyl}-2,6-dioxo-3,6-dihydro-2H-pyrimidin-1-yl)-propyl]acetamide] | 1
COCC(COC)n1c(=O)c(-c2cccc(F)c2Cl)cn(CC(=O)N2CCC(N3CCc4cc(OC)ccc4NC3=O)CC2)c1=O [Compound 232, 5-(2-chloro-3-fluorophenyl)-3-[2-methoxy-1-(methoxymethyl)ethyl]-1-[2-[4-(7-methoxy-2-oxo-4,5-dihydro-1H-1,3-benzodiazepin-3-yl)-1-piperidyl]-2-oxo-ethyl]pyrimidine-2,4-dione] | 1
CC[C@H](C)n1c(=O)c(-c2cccc(F)c2Cl)cn(CC(=O)N2CCC(N3CCc4cc(OC)ccc4NC3=O)CC2)c1=O [Compound 237, 5-(2-chloro-3-fluorophenyl)-1-[2-[4-(7-methoxy-2-oxo-4,5-dihydro-1H-1,3-benzodiazepin-3-yl)-1-piperidyl]-2-oxo-ethyl]-3-[(1S)-1-methylpropyl]pyrimidine-2,4-dione] | 3
COc1ccc2c(c1)CCN(C1CCN(C(=O)Cn3cc(-c4cccc(F)c4Cl)c(=O)n(CC(C)(C)OC)c3=O)CC1)C(=O)N2 [Compound 240, 5-(2-chloro-3-fluorophenyl)-3-(2-methoxy-2-methylpropyl)-1-[2-[4-(7-methoxy-2-oxo-4,5-dihydro-1H-1,3-benzodiazepin-3-yl)-1-piperidyl]-2-oxo-ethyl]pyrimidine-2,4-dione] | 0
COc1ccc2c(c1)CCN(C1CCN(C(=O)Cn3cc(-c4cccc(F)c4Cl)c(=O)n(CCn4cnnc4)c3=O)CC1)C(=O)N2 [Compound 251, 5-(2-chloro-3-fluorophenyl)-1-[2-[4-(7-methoxy-2-oxo-4,5-dihydro-1H-1,3-benzodiazepin-3-yl)-1-piperidyl]-2-oxo-ethyl]-3-[2-(1,2,4-triazol-4-yl)ethyl]pyrimidine-2,4-dione] | 4
O=C(CN1C(=O)C2(CCCC2)NC[C@H]1c1cc(F)cc(F)c1)Nc1ccc2c(c1)C[C@@]1(C2)C(=O)Nc2ncccc21 [MK-3207, reference compound] | 100
NCCCC[C@H](NC(=O)[C@@H](Cc1cc(Br)c(O)c(Br)c1)NC(=O)N1CCC(N2Cc3ccccc3NC2=O)CC1)C(=O)N1CCN(c2ccncc2)CC1 [Olcegepant, olcegepant, reference compound] | 100
O=C(N[C@@H]1CC[C@@H](c2cccc(F)c2F)CN(CC(F)(F)F)C1=O)N1CCC(n2c(=O)[nH]c3ncccc32)CC1 [Telcagepant, telcagepant, reference compound] | 100
